Data published in PMC12736008, “New Dimethylpyridine-3-Carboxamide Derivatives as MMP-13 Inhibitors with Anticancer Activity” (Molecules, 2025).

Target: T1, MMP-13 (Homo sapiens, UniProt P45452)
T1 construct: purchased Abcam ab139451
Test: MMP-13 inhibitor screening assay kit (fluorometric)
Type: biochemical
Conditions: single-point screening; tested compounds 1.8 to 4.6 µM
Method: The inhibitory activity of the designed compounds against MMP-13 was evaluated using a commercial fluorometric MMP-13 inhibitor assay kit (Abcam, Cambridge, UK), following the manufacturer’s protocol. Solutions of the tested compounds were prepared at concentrations ranging from 1.8 to 4.6 µM. N-isobutyl-N-(4-methoxyphenylsulfonyl)glycyl hydroxamic acid (NNGH), a broad-spectrum inhibitor of matrix metalloproteinases, was used as positive control. […] In parallel, MMP-8 inhibition assays were also conducted using the same concentrations of compounds 3b, 3c, 3d, and 3g.
It should be emphasized that these assays were performed as single-point screening experiments, optimized for rapid qualitative assessment rather than full kinetic characterization. Consequently, the observed differences in activity between MMP-13 and MMP-8 are indicative trends supporting the selectivity predicted by computational studies, including docking, molecular dynamics simulations, and binding free energy calculations, rather than providing definitive quantitative evidence.
The inhibitory activity of the tested compounds was evaluated using the MMP-13 inhibitor screening assay kit (fluorometric) (Abcam, ab139451). The assay performed according to the manufacturer’s instructions. The designed compounds were tested at concentrations ranging from 1.8 to 4.6 µM, to determine their inhibitory activity. […]

## COc1ccc(S(=O)(=O)N(CC(=O)NO)CC(C)C)cc1 [NNGH, N-isobutyl-N-(4-methoxyphenylsulfonyl)glycyl hydroxamic acid, reference compound]
  MMP-13 activity inhibition: ~97%
